Laboratory results from patent publication US20240368122A1, “JAK2 INHIBITORS AND METHODS OF USE THEREOF” (RELAY THERAPEUTICS, INC., priority 2021, published 2024).
Read-outs that look alike come from different tables or passages of the source.

Tests used:
[1] = test system: TF1 JAK2 V617F STAT5 reporter; test: Cellular TF1 STAT5 assay (luciferase reporter), JAK2 V617F; assay type: cell-based; conditions: read-out: Cell PD TF1 V617F STAT5 (IC50)
Protocol: (§1) Selected compounds of the present disclosure were tested in a Cellular TF1 STAT3 or STAT5 assay, to measure the degree of JAK2-mediated STAT3 or STAT5 phosphorylation, respectively. TF1 cells (immortalized erythroleukemia line) expressing either wildtype or V617F mutant JAK2 with a luciferase reporter were used.
(§2) Cell culture: Cells were put into antibiotic selection (1 ug/ml puro+500 ug/ml Geneticin) when first thawed then maintained in growth media without antibiotics. Cells were maintained in exponential growth phase, between 0.02-1 E6 cells/ml.
(§3) Compound preparation: Compounds were screened as 10-point dose response curves 1:3 dilutions. DMSO is used as the vehicle control. All wells were normalized to the same final DMSO concentration. Compounds were pre-spotted onto 384 well plates using an Echo acoustic dispenser, 50 nL of 1000× (10 mM top concentration) DMSO stock/well. Each compound is run in triplicate plates.
(§4) Cell plating: Cells were counted using Vi-Cell XR, then cells were spun down and resuspended in growth media to 200,000 cells/ml. Cells were added to plates containing compound. 10,000 cells/well in 50 ul volume using a Biomek liquid handler. Plates were briefly mixed on a shaker for 1 minute at 2500 rpm then placed in a 37° C., 5% CO2 incubator overnight for 18-20 hrs.
(§5) Measuring luciferase activity: ONE-glo reagent was brought to room temperature, and 25 μL of ONE-glo assay reagent was added to each well using Biomek liquid handler. The plates were incubated for 10 minutes at room temperature, then luminescence was measured on an Envision plate reader.

[2] = test system: TF1 JAK2 V617F STAT3 reporter; test: Cellular TF1 STAT3 assay (luciferase reporter), JAK2 V617F; assay type: cell-based; conditions: read-out: Cell PD-TF1 JAK2 V617F STAT3 (IC50)
Protocol: as §1, §2, §3, §4, §5

[3] = target: T1, JAK2 JH2 WT (V536-D812) [W659A, W777A, F794H solubilizing mutations] (Homo sapiens, UniProt O60674, F794H/W659A/W777A); test: Surface Plasmon Resonance (SPR) binding assay, JAK2 JH2 domain
T1 construct: **JAK2 JH2 WT (V536-D812) [W659A, W777A, F794H solubilizing mutations]; C-thrombin-avi-His6; thrombin cleavage site (C); His6 (C); purchased Biortus
T1 sequence (O60674 536-812 W659A/W777A/F794H): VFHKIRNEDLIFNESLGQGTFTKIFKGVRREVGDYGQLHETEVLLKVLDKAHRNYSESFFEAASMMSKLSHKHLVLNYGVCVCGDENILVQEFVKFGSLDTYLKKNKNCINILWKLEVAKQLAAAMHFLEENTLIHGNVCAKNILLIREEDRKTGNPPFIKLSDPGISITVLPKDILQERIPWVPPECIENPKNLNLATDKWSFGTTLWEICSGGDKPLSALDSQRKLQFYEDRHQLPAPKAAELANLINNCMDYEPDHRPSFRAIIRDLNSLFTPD
Protocol: Selected compounds of the present disclosure were tested in a Surface Plasmon Resonance (SPR) Assay to measure their binding kinetics and affinity for proteins of interest.
Prepare buffer: 50 mM HEPES pH 7.5, 150 mM NaCl, 0.05% (v/v) Tween, and 10% (v/v) glycerol were combined and pH was adjusted to 7.5, then filtered. 5 mM DTT, was added, and buffer without DMSO was reserved for compound resuspension. 2% (v/v) DMSO was added for assay buffer, and separately 1% DMSO was used to make buffer for resuspending compounds.
Prepare compounds: Using a Bravo liquid handler, 99 μL of 1% (v/v) DMSO assay buffer was added to 1 μL compounds in DMSO.
Run 8K Method: Biotin CAPture (CAP) chip surface was regenerated prior to run by: Inserting CAP chip into Biacore 8K, prime machine with assay buffer with 2% (v/v) DMSO; Setting instrument temperature to 20° C.; Conditioning surface with NaOH/GdnHCl reagents from CAP chip kit (60 seconds, 10 μL/min); and Capturing oligo-Streptavidin (SA) reagent from CAP kit (600 seconds, 1 μL/min), expected capture ˜2500 RU. JAK2 JH1 or JH2 protein was immobilized by preparing a sample of 0.5 uM JH1 or 0.4 uM JH2 protein diluted in assay buffer without DMSO and supplemented with 10 uM of a selected compound of the invention as a stabilizer (370 seconds, 5 uL/min), expected capture ˜1000 RU. Remaining biotin sites on SA were blocked with 1 uM biotin (30 seconds, 20 uL/min), then equilibrated for 1800 seconds at 100 uL/min. Compounds being assayed were run in single cycle kinetics: 4 doses with a top concentration of 5 uM (JH1) or 500 nM (JH2), dilution factor of 3, at 20° C., for a contact time of 60 seconds, and a dissociation time of 300 seconds (JH1) or 1200 seconds (JH2), at a flow rate of 30 uL/min. The surface was completely regenerated after each compound is run, and JH1 or JH2 protein was immobilized fresh prior to each new compound. Data were fitted kinetically with 1:1 binding model using Biacore Insight Evaluation Software.

[4] = Homo sapiens, TF-1, TF1 cells, JAK2 V617F

| IC50 [1, 4] [nM] | IC50 [2, 4] [nM] | Kd ([3]; SPR, JAK2 JH2 domain) [nM] | SMILES | also measured |
| --- | --- | --- | --- | --- |
|  |  | 0.01 to 10 | CNC(=O)c1nnc(NC(=O)C2CC2)cc1Nc1cccc(-c2cnn(C3CN(C(C)c4ccccn4)C3)c2)c1OC (racemic) [Compound 127] | IC50 ([1]; TF1 JAK2 V617F): 500 to 5000 nM; IC50 ([2]; TF1 JAK2 V617F): 500 to 5000 nM |
| 500 to 5000 | 500 to 5000 |  | CNC(=O)c1nnc(NC(=O)C2CC2)cc1Nc1cccc(-c2cnn(C3CN(C(C)c4cccc(C#N)n4)C3)c2)c1OC (racemic) [Compound 227] | Kd [3]: 0.01 to 10 nM |
|  |  | 0.01 to 10 | CNC(=O)c1nnc(NC(=O)C2CC2)cc1Nc1cccc(-c2ccc(C(=O)N(C)[C@H](C)c3nc(C)no3)nc2)c1OC (single isomer, unassigned) [Compound 65] | IC50 ([1]; TF1 JAK2 V617F): 500 to 5000 nM; IC50 ([2]; TF1 JAK2 V617F): 500 to 5000 nM |
|  |  | 10 to 50 | CNC(=O)c1nnc(NC(=O)C2CC2)cc1Nc1cccc(-c2ccc(C(=O)N(C)[C@H](C)c3cnn(C)c3)nc2)c1OC (single isomer, unassigned) [Compound 115] | IC50 ([1]; TF1 JAK2 V617F): 5000 to 100000 nM; IC50 ([2]; TF1 JAK2 V617F): 5000 to 100000 nM |
|  |  | 10 to 50 | CNC(=O)c1nnc(NC(=O)C2CC2)cc1Nc1cccc(-c2ccc(C(=O)N(C)C[C@@H]3Cc4ccccc4CO3)nc2)c1OC (single isomer, unassigned) [Compound 138] | IC50 ([1]; TF1 JAK2 V617F): 5000 to 100000 nM; IC50 ([2]; TF1 JAK2 V617F): 500 to 5000 nM |
| 500 to 5000 |  |  | CNC(=O)c1nnc(NC(=O)C2CC2)cc1Nc1cccc(-c2ccc(C(=O)N(C)Cc3cc([S@+](C)[O-])ccn3)nc2)c1OC (single isomer, unassigned) [Compound 407] |  |
|  |  | 0.01 to 10 | CNC(=O)c1nnc(NC(=O)C2CC2)cc1Nc1cccc(-c2ccc(C(=O)N(C)C(C)c3cnn(C)c3)nc2)c1OC (centres unmarked) [Compound 46] |  |
|  |  | 0.01 to 10 | [2H]C([2H])([2H])N(Cc1cc(C#N)ccn1)C(=O)c1ncc(-c2c(C)ccc(Nc3cc(NC(=O)C4CC4)nnc3C(=O)NC)c2OC)cn1 [Compound 87] |  |
| 500 to 5000 | 500 to 5000 |  | CNC(=O)c1nnc(NC(=O)C2CC2)cc1Nc1cccc(-c2ccc(C(=O)N(C)Cc3cc(C#N)ccn3)c(C(F)F)c2)c1OC [Compound 233] |  |
| 500 to 5000 | 5000 to 100000 |  | CNC(=O)c1nnc(NC(=O)C2CC2)cc1Nc1cccc(-c2ccc(C3CN(Cc4ccc(C(F)(F)F)cn4)C3)nc2)c1OC [Compound 387] |  |
| 50 to 500 |  |  | CNC(=O)c1nnc(NC(=O)C2CC2)cc1Nc1ccc(Cl)c(-c2ccc(C(=O)N(C)Cc3cc(S(C)(=O)=O)ccn3)nc2)c1OC [Compound 401] |  |
| 5000 to 100000 |  |  | COc1c(Nc2cc(NC(=O)C3CC3)nnc2-c2ncc[nH]2)cccc1-c1cnn(C2CN(Cc3ccccn3)C2)c1 [Compound 406] |  |

Second part, the compound before the results:

| SMILES | IC50 [1, 4] [nM] | IC50 [2, 4] [nM] | Kd ([3]; SPR, JAK2 JH2 domain) [nM] | also measured |
| --- | --- | --- | --- | --- |
| CNC(=O)c1nnc(NC(=O)OC2CC2)cc1Nc1cccc(-c2cnn(C3CC(Oc4cccc(C#N)n4)C3)c2)c1OC (mixture of isomers) [Compound 345] | 500 to 5000 | 5000 to 100000 |  | Kd [3]: 0.01 to 10 nM |
| CNC(=O)c1nnc(NC(=O)C2CC2)cc1Nc1cccc(-c2cn([C@@H]3CN(Cc4cccc(C#N)n4)[C@H]3C)nn2)c1OC (racemic) [Compound 214] | 50 to 500 | 50 to 500 |  | Kd [3]: 0.01 to 10 nM |
| CNC(=O)c1nnc(NC(=O)C2CC2)cc1Nc1cccc(-c2cn([C@@H]3CN(Cc4cccc(C)n4)[C@H]3C(OC)OC)nn2)c1OC (racemic) [Compound 247] | 500 to 5000 | 500 to 5000 |  | Kd [3]: 0.01 to 10 nM |
| CNC(=O)c1nnc(NC(=O)C2CC2)cc1Nc1ccc(C)c(-c2cn([C@@H]3CN(Cc4cccc(C)n4)[C@H]3C)nn2)c1OC (racemic) [Compound 270] | 500 to 5000 | 500 to 5000 |  | Kd [3]: 0.01 to 10 nM |
| CNC(=O)c1nnc(NC(=O)C2CC2)cc1Nc1cccc(-c2cnn(C3CN(C(C#N)c4ccccn4)C3)c2)c1OC (racemic) [Compound 315] | 5000 to 100000 | 500 to 5000 |  | Kd [3]: 0.01 to 10 nM |
| CNC(=O)c1nnc(NC(=O)C2CC2)cc1Nc1cccc(-c2ccc(C(=O)N(C)[C@@H](C)c3cnn(C)c3)nc2)c1OC (single isomer, unassigned) [Compound 116] |  |  | 0.01 to 10 | IC50 ([1]; TF1 JAK2 V617F): 500 to 5000 nM; IC50 ([2]; TF1 JAK2 V617F): 50 to 500 nM |
| CNC(=O)c1nnc(NC(=O)C2CC2)cc1Nc1ccc(C)c(-c2cnc(C(=O)N(C)C[C@H]3CCN(C)C3=O)c(F)c2)c1OC (single isomer, unassigned) [Compound 117] |  |  | 0.01 to 10 | IC50 ([1]; TF1 JAK2 V617F): 5000 to 100000 nM; IC50 ([2]; TF1 JAK2 V617F): 5000 to 100000 nM |
| CNC(=O)c1nnc(NC(=O)C2CC2)cc1Nc1cccc(-c2ccc(C(=O)N(C)C[C@H]3Cc4ccccc4CO3)nc2)c1OC (single isomer, unassigned) [Compound 139] |  |  | 10 to 50 | IC50 ([1]; TF1 JAK2 V617F): 5000 to 100000 nM; IC50 ([2]; TF1 JAK2 V617F): 500 to 5000 nM |
| CNC(=O)c1nnc(NC(=O)C2CC2)cc1Nc1cccc(-c2ccc(C(=O)N(C)C[C@@H]3CCCO3)nc2)c1OC (single isomer, unassigned) [Compound 140] |  |  | 10 to 50 | IC50 ([1]; TF1 JAK2 V617F): 5000 to 100000 nM; IC50 ([2]; TF1 JAK2 V617F): 5000 to 100000 nM |
| CNC(=O)c1nnc(NC(=O)C2CC2)cc1Nc1cccc(-c2cnn(C3CN(Cc4cccc([S@+](C)[O-])n4)C3)c2)c1OC (single isomer, unassigned) [Compound 402] | 50 to 500 |  |  |  |
| CNC(=O)c1nnc(NC(=O)C2CC2)cc1Nc1cccc(-c2cnn(C3CN(Cc4cccc([S@@+](C)[O-])n4)C3)c2)c1OC (single isomer, unassigned) [Compound 403] | 50 to 500 |  |  |  |
| CNC(=O)c1nnc(NC(=O)C2CC2)cc1Nc1cccc(-c2ccc(C(=O)N(C)Cc3cc([S@@+](C)[O-])ccn3)nc2)c1OC (single isomer, unassigned) [Compound 405] | 50 to 500 |  |  |  |
| CNC(=O)c1nnc(NC(=O)C2CC2)cc1Nc1cccc(-c2cnn(C3CN(Cc4nn(C)cc4C)C3)c2)c1OC [Compound 215] | 500 to 5000 | 500 to 5000 |  |  |
| CNC(=O)c1nnc(NC(=O)C2CC2)cc1Nc1nccc(-c2ccc(C(=O)N(C)Cc3ncc(COC)s3)nc2)c1OC [Compound 375] |  |  |  | Kd [3]: 0.01 to 10 nM |
| CNC(=O)c1nnc(NC(=O)C2CC2)cc1Nc1cccc(-c2ccc(C3CN(Cc4ncc(OC)cc4Cl)C3)nc2)c1OC [Compound 386] | 500 to 5000 | 5000 to 100000 |  |  |
| CNC(=O)c1nnc(NC(=O)C2CC2)cc1Nc1cccc(-c2ccc(C3CN(Cc4ccc(OC5CC5)cn4)C3)nc2)c1OC [Compound 390] |  |  |  | Kd [3]: 50 to 500 nM |
| COc1c(Nc2cc(NC(=O)C3CC3)nn3cc(C(N)=O)nc23)ccc(C)c1-c1cnn(C2CN(Cc3ccccn3)C2)c1 [Compound 392] | 5000 to 100000 | 5000 to 100000 |  |  |
| CNC(=O)c1nnc(NC(=O)C2CC2)cc1Nc1cccc(-c2cc(N3CC(Oc4ccccn4)C3)n(C)n2)c1OC [Compound 393] | 5000 to 100000 | 500 to 5000 |  |  |
| COc1c(Nc2cc(NC(=O)C3CC3)nn3cc(C#N)nc23)ccc(C)c1-c1cnn(C2CN(Cc3ccccn3)C2)c1 [Compound 395] | 5000 to 100000 | 5000 to 100000 |  |  |
| CNC(=O)c1nnc(NC(=O)C2CC2)cc1Nc1cc(F)c(C)c(-c2ccc(C(=O)N(C)Cc3cc(S(C)(=O)=O)ccn3)nc2)c1OC [Compound 400] | 50 to 500 |  |  |  |
| CNC(=O)c1nnc(NC(=O)C2CC2)cc1Nc1cccc(-c2cc(N3CC(Cc4ccccn4)C3)n(C)n2)c1OC [Compound 404] | 5000 to 100000 |  |  |  |
